Values joined by “and” are separate entries in the source; they are usually repeats but may differ in a detail not shown here. Identical values can stand only once.
What was measured:
[1] = system: Cryptosporidium andersoni BioA; experiment: BioA enzyme activity with DMSO or herbicide in vitro; assay type: biochemical; conditions: 0.5 μM, spermidine in substrate mix
[2] = biological target: T1, Arabidopsis thaliana BIO3-BIO1 (BioDA) mutants (Arabidopsis thaliana, UniProt B0F481, Q506A); experiment: BIO3-BIO1 mutant enzyme activity in the presence of herbicide, percentage inhibition (fluorometric DAPA assay); assay type: biochemical; conditions: read-out: percentage inhibition
T1 construct: with the predicted N-terminal mitochondrial transit peptide removed; 6xHis-tag (N); thrombin cleavage site (N); made in house; host or cells: E. coli BL21 (DE3) bioA
How it was run: (§1)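 His-tagged Arabidopsis BIO3-BIO1 mutants, expressed in E. coli and purified by IMAC and SEC, were preincubated at 50 nM with herbicide for 10 min at 20 °C in EPPS pH 8.6 with pyridoxal phosphate. Reaction with 100 μM spermidine and 20 μM KAPA ran 75 min at 20 °C; DAPA was derivatised with o-phthalaldehyde and read at ex 410/em 470 nm. […].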

[3] = biological target: T2, Arabidopsis thaliana BIO3-BIO1 (BioDA) mutants (Arabidopsis thaliana, UniProt B0F481, A507S); experiment: as above; assay type: biochemical; conditions: read-out: percentage inhibition
T2 construct: with the predicted N-terminal mitochondrial transit peptide removed; 6xHis-tag (N); thrombin cleavage site (N); made in house; host or cells: E. coli BL21 (DE3) bioA
How it was run: as §1

[4] = biological target: T3, Arabidopsis thaliana BIO3-BIO1 (BioDA) mutants (Arabidopsis thaliana, UniProt B0F481, A507K); experiment: as above; assay type: biochemical; conditions: read-out: percentage inhibition
T3 construct: with the predicted N-terminal mitochondrial transit peptide removed; 6xHis-tag (N); thrombin cleavage site (N); made in house; host or cells: E. coli BL21 (DE3) bioA
How it was run: as §1

[5] = system: D4596 (Arabidopsis thaliana BIO3-BIO1 F348C) containing tobacco plants; experiment: Visual herbicide damage score on transgenic tobacco D4596 (pCMP AtBioDA F348C); assay type: in vivo; conditions: 600 gai/ha; 7 DAT; each table row is one D4596 transgenic plant
From the text: Populations of transgenic tobacco comprising 20-30 transgenic events per plant transformation constructs were generated as described in Example 1. These lines were clonally propagated and 1 clone per event was sprayed with 600 g ai/ha compound L or A+0.2% Genapol X080 with a spray volume of 200 L/Ha (“g ai/ha” refers to grams of active compound per hectare).
Herbicidal damage was visually assessed across the population and a herbicide damage score given at 7, 14 and 21 days. A score of 0 indicates no visible damage or stunting whereas a score of 100 indicates a complete death of the plant. 20 transgenic events (i.e. individual transgenic plants) from each GM tobacco line were transplanted to soil 1 week prior to spraying with BIO3-BIO1inhibiting compounds. WT tobacco was included as a control.
To determine if overexpression of variants detailed in Example 7 confer resistance to BIO3-BIO1 inhibiting compounds when expressed in plants, GM tobacco lines were produced using the methods in Example 1 and tested with BIO3-BIO1 inhibiting compounds.
Transgenic tobacco plants expressing the Arabidopsis thaliana BIO3-BIO1 variants C388D (SEQ ID NO:26), P421L(SEQ ID NO:41), F348C (SEQ ID NO:28), G700S (SEQ ID NO:39), W392S (SEQ ID NO:70) and the Zea mays BIO3-BIO1 variant C372D (SEQ ID NO:324). Populations of transgenic tobacco were sprayed and assessed as in Example 2

T1 sequence (B0F481 23-833 Q506A): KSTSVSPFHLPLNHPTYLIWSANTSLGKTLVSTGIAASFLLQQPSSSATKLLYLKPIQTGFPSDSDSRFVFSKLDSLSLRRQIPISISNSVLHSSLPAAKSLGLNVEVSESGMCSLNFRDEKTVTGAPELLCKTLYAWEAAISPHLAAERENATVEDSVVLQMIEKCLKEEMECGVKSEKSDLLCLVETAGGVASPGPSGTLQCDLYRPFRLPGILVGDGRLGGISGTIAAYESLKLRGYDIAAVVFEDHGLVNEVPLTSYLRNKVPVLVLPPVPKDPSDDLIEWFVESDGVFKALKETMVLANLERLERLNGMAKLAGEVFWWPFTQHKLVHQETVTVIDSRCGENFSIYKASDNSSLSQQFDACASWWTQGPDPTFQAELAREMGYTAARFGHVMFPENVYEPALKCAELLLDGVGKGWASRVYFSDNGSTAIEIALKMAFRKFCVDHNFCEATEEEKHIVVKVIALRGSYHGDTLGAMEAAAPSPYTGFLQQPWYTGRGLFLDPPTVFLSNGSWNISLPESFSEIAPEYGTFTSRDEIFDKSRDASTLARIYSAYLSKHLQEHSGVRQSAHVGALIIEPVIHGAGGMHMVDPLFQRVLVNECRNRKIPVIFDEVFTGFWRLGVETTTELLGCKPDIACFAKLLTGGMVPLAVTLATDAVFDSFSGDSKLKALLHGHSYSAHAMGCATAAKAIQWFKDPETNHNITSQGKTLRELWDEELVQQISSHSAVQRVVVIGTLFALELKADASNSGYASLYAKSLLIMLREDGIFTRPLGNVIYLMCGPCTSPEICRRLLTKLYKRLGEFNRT
T3 sequence (B0F481 23-833 A507K): as the sequence (B0F481 23-833 Q506A) above, with A484Q, A485K counted along it
T2 sequence (B0F481 23-833 A507S): as the sequence (B0F481 23-833 Q506A) above, with A484Q, A485S counted along it

SMILES	% Inhibition relative to DMSO treatment [1] [%]	inhibition at 1 µM [2] [%]	inhibition at 1 µM [3] [%]	inhibition at 1 µM [4] [%]	percentage of damage [5]
CCn1c(Cn2ccc(C(F)(F)F)n2)cc(=O)c(C(=O)O)c1-c1ccc(Cl)c(Cl)c1 [Compound L, 2-(3,4-dichlorophenyl)-1-ethyl-4-oxo-6-[[3-(trifluoromethyl)pyrazol-1-yl]methyl]pyridine-3-carboxylic acid]	0				
CCOC(=O)c1nn(-c2ccc3c(c2)OC(F)(F)C(F)(F)O3)c2cccc(C(C)=O)c2c1=O [Compound A, ethyl 5-acetyl-4-oxo-1-(2,2,3,3-tetrafluoro-1,4-benzodioxin-6-yl)cinnoline-3-carboxylate]		0	63	81	0% and 3%

Source: US20260226493A1, “HERBICIDE RESISTANT PLANTS” (SYNGENTA CROP PROTECTION AG, priority 2023, published 2026)
